Assays:
Assay in all cases: relative viability (nuclei count vs DMSO), 5 days (fraction); higher = more cells survive
Linsitinib + Vorinostat = compound: C[C@]1(O)C[C@@H](c2nc(-c3ccc4ccc(-c5ccccc5)nc4c3)c3c(N)nccn32)C1 [Linsitinib] + O=C(CCCCCCC(=O)Nc1ccccc1)NO [Vorinostat] (partner 1 µM)
Summary of the method: (§1)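 Lung cancer cell lines, seeded in 1536-well plates, were treated the following day by pin tool with a single drug or with five library-drug doses (not always all listed) in √10 steps on top of a fixed anchor-drug dose. Cells were fixed and nuclei stained in one step after 5 days, and nuclei were counted. Relative viability is the nuclei count for treated wells divided by that for vehicle wells, reported as medians of duplicate plates.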

Linsitinib + Phenformin = compound: C[C@]1(O)C[C@@H](c2nc(-c3ccc4ccc(-c5ccccc5)nc4c3)c3c(N)nccn32)C1 [Linsitinib] + N=C(N)NC(=N)NCCc1ccccc1 [Phenformin] (partner 250 µM)
Summary of the method: as §1

Ispinesib + Palbociclib = compound: Cc1ccc(C(=O)N(CCCN)[C@@H](c2nc3cc(Cl)ccc3c(=O)n2Cc2ccccc2)C(C)C)cc1 [Ispinesib] + CC(=O)c1c(C)c2cnc(Nc3ccc(N4CCNCC4)cn3)nc2n(C2CCCC2)c1=O [Palbociclib] (partner 0.5 µM)
Summary of the method: as §1

Ispinesib + Alpelisib = compound: Cc1ccc(C(=O)N(CCCN)[C@@H](c2nc3cc(Cl)ccc3c(=O)n2Cc2ccccc2)C(C)C)cc1 [Ispinesib] + Cc1nc(NC(=O)N2CCC[C@H]2C(N)=O)sc1-c1ccnc(C(C)(C)C(F)(F)F)c1 [Alpelisib] (partner 2 µM)
Summary of the method: as §1

Cell Line | relative viability (Linsitinib + Vorinostat; first compound 0.01 µM) | relative viability (Linsitinib + Vorinostat; first compound 0.03162 µM) | relative viability (Linsitinib + Vorinostat; first compound 0.1 µM) | relative viability (Linsitinib + Vorinostat; first compound 0.3162 µM) | relative viability (Linsitinib + Vorinostat; first compound 1 µM) | relative viability (Linsitinib + Phenformin; first compound 0.01 µM) | relative viability (Linsitinib + Phenformin; first compound 0.03162 µM) | relative viability (Linsitinib + Phenformin; first compound 0.1 µM) | relative viability (Linsitinib + Phenformin; first compound 0.3162 µM) | relative viability (Linsitinib + Phenformin; first compound 1 µM) | relative viability (Ispinesib + Palbociclib; first compound 0.001 µM) | relative viability (Ispinesib + Palbociclib; first compound 0.003162 µM) | relative viability (Ispinesib + Palbociclib; first compound 0.01 µM) | relative viability (Ispinesib + Palbociclib; first compound 0.03162 µM) | relative viability (Ispinesib + Palbociclib; first compound 0.1 µM) | relative viability (Ispinesib + Alpelisib; first compound 0.001 µM) | relative viability (Ispinesib + Alpelisib; first compound 0.003162 µM) | relative viability (Ispinesib + Alpelisib; first compound 0.01 µM) | relative viability (Ispinesib + Alpelisib; first compound 0.03162 µM) | relative viability (Ispinesib + Alpelisib; first compound 0.1 µM)
NCI-H358 | 0.74 | 0.564 | 0.812 | 0.55 | 0.368 | 0.304 | 0.273 | 0.306 | 0.228 | 0.207 | 0.125 | 0.13 | 0.143 | 0.106 | 0.0965 | 0.885 | 0.874 | 0.989 | 0.573 | 0.283
NCI-H1915 | 0.547 | 0.51 | 0.528 | 0.46 | 0.394 | 0.371 | 0.389 | 0.247 | 0.339 | 0.373 | 0.528 | 0.694 | 0.542 | 0.491 | 0.41 | 1.09 | 1.16 | 1.03 | 0.958 | 0.979
201T | 0.941 | 1.06 | 0.972 | 0.487 | 0.832 | 0.405 | 0.475 | 0.434 | 0.449 | 0.338 | 0.378 | 0.407 | 0.361 | 0.409 | 0.345 | 1.07 | 1.01 | 1.06 | 0.996 | 0.955
NCI-H1437 | 0.815 | 0.709 | 0.851 | 0.618 | 0.626 | 0.281 | 0.321 | 0.303 | 0.272 | 0.288 | 0.329 | 0.319 | 0.325 | 0.332 | 0.13 | 1.11 | 1.14 | 0.972 | 0.893 | 0.272
A-427 | 0.859 | 0.905 | 0.892 | – | 0.808 | 0.383 | 0.321 | 0.301 | – | 0.233 | 0.53 | 0.538 | 0.55 | 0.322 | 0.282 | 1.1 | 1.21 | 0.993 | 1 | 1.04
HCC-366 | 0.41 | 0.328 | 0.324 | 0.218 | 0.0911 | 0.612 | 0.604 | 0.598 | 0.574 | 0.377 | 0.289 | 0.448 | 0.497 | 0.5 | 0.0937 | 0.733 | 0.393 | 0.535 | 0.47 | 0.135
BEN | 0.513 | 0.573 | 0.534 | 0.434 | 0.474 | 0.28 | 0.24 | 0.245 | – | 0.292 | 0.463 | 0.514 | 0.478 | 0.47 | 0.372 | 1.06 | 1.13 | 1.12 | 0.758 | 0.353
NCI-H2347 | 0.677 | 0.583 | 0.591 | 0.444 | 0.57 | 0.391 | 0.534 | 0.385 | – | 0.467 | 0.406 | 0.388 | 0.423 | 0.395 | 0.419 | 1.04 | 1.13 | 1.18 | 0.94 | 0.655
LCLC-103H | 0.775 | 0.68 | 0.836 | 0.429 | 0.605 | 0.397 | 0.344 | 0.324 | 0.327 | 0.303 | 0.447 | 0.545 | 0.476 | 0.441 | 0.465 | 0.986 | 1.07 | 1.03 | 0.833 | 0.943
NCI-H650 | 0.438 | 0.359 | 0.432 | – | 0.394 | 0.443 | 0.484 | 0.432 | 0.337 | 0.364 | 0.301 | 0.309 | 0.361 | 0.324 | 0.335 | 1.11 | 1.23 | 1.29 | 1.05 | 0.353
NCI-H1975 | 0.752 | 0.614 | 0.748 | 0.575 | 0.632 | 0.396 | 0.417 | 0.413 | 0.38 | 0.396 | 0.663 | 0.683 | 0.581 | 0.311 | 0.192 | 0.738 | 0.672 | 0.666 | 0.332 | 0.226
NCI-H2126 | 0.855 | 0.8 | 0.767 | 0.451 | 0.514 | 0.531 | 0.512 | 0.484 | 0.338 | 0.319 | 0.335 | 0.393 | 0.314 | 0.339 | 0.385 | 0.765 | 0.811 | 0.901 | 0.742 | 0.813
NCI-H2087 | 0.68 | 0.74 | 0.702 | 0.693 | 0.795 | 0.498 | 0.54 | 0.417 | 0.222 | 0.365 | 0.206 | 0.224 | 0.262 | 0.172 | 0.112 | 0.992 | 1.2 | 1.28 | 1.02 | 0.159

— the supplement of paper PMC10307832
